Experimental findings from patent US9957271B2, “Substituted bicyclic aza-heterocycles and analogues as sirtuin modulators” (GlaxoSmithKline, LLC, priority 2012, dated 2018) are described below.

This assay concerns the target T1, SIRT1 (Homo sapiens, UniProt Q96EB6).
T1 sequence (Q96EB6 1-747): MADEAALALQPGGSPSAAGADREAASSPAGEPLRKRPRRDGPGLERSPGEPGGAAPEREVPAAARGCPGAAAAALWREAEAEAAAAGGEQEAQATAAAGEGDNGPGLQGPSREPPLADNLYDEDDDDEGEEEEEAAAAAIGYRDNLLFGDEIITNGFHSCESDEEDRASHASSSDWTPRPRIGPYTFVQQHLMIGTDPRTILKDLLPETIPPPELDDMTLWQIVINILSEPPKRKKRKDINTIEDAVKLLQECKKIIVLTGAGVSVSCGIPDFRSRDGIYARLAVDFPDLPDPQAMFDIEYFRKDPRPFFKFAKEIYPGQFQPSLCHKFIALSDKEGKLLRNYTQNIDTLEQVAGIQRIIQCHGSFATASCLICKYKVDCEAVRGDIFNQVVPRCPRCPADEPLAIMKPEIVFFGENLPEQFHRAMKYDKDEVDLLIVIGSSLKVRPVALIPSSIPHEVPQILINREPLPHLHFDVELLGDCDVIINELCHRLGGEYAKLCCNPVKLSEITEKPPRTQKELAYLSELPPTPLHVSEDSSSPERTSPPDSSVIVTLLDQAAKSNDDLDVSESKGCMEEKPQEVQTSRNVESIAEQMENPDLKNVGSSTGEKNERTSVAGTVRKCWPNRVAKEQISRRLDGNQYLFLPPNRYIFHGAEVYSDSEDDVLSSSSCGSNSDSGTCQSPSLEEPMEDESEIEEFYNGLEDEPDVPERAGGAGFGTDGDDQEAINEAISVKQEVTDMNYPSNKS
The assay can be described thus: TAMRA based mass spectrometry assay of SIRT1 activity. Format: biochemical. The conditions noted are these: for TAMRA EC1.5 (μM) / TAMRA EC1.5: concentration giving 150% activation of SIRT1; for Emax: percent maximum fold activation, read-out: TAMRA % Fold Act. The procedure, abridged:
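Recombinant N-terminal His-tagged human SIRT1 (10 nM, E. coli) incubated 25 min at 25 °C with 0.5 μM 5TMR-labelled p53-derived acetyl-peptide and 120 μM βNAD+ in Tris-acetate pH 8 buffer with DTT and 0.05% BSA, compound at varying concentrations. Stopped with formic acid; deacetylated peptide or OAADPR measured by mass spectrometry relative to DMSO controls.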

Like-named read-outs stand apart in the source and are kept apart here.

Turning to `Cc1nc2ccc(-c3ccccc3C(F)(F)F)nn2c1NC(=O)c1cccc(OCC(O)CO)n1` (stereo not drawn) [Compound 384], where the note is “TAMRA assay”, the “TAMRA EC1.5 (μM)” value is given as “B (EC1.5 1-25 μM)” and the Emax is < 350%.

In the case of `Cc1scnc1C(=O)Nc1cnc2c(C)c(C)c(-c3ccccc3Cl)nn12` [Compound 385], where the note is “TAMRA assay”, the “TAMRA EC1.5 (μM)” value is reported as “A (EC1.5<1 μM)” and the Emax was ≥ 350%.

In the case of `Cc1cc(C)nc(C(=O)Nc2cnc3c(C)c(C)c(-c4ccccc4Cl)nn23)n1` [Compound 388], where the note is “TAMRA assay”, the “TAMRA EC1.5 (μM)” value was “A (EC1.5<1 μM)” and the Emax is ≥ 350%.

For the compound `O=C(Nc1cccc(CN2CC[C@@H](F)C2)n1)c1cnc2ccc(-c3ccccc3C(F)(F)F)nn12` [Compound 390], under “TAMRA assay”, the “TAMRA EC1.5 (μM)” value was “A (EC1.5<1 μM)” and the Emax is ≥ 350%.

Consider `O=C(Nc1cccc(CN2CCC(F)(F)CC2)n1)c1cnc2ccc(-c3ccccc3C(F)(F)F)nn12` [Compound 391], for which, under “TAMRA assay”, the “TAMRA EC1.5 (μM)” value is “A (EC1.5<1 μM)” and the Emax is ≥ 350%.

For `Cc1ccc(C(=O)Nc2cnc3ccc(-c4ccccc4C(F)(F)F)nn23)c(C)n1` [Compound 394], under “TAMRA assay”, the “TAMRA EC1.5 (μM)” value was “B (EC1.5 1-25 μM)” and the Emax is < 350%.

Regarding `Cc1ccc(NC(=O)c2cnc3ccc(-c4ccccc4OC(F)(F)F)nn23)nn1` [Compound 396], under “TAMRA assay”, the “TAMRA EC1.5 (μM)” value is reported as “A (EC1.5<1 μM)” and the Emax is ≥ 350%.

`Cc1cnc(NC(=O)c2cnc3ccc(-c4ccccc4OC(F)(F)F)nn23)s1` [Compound 397]: for the setting “TAMRA peptide substrate”, the “TAMRA EC1.5” value was “A (EC1.5<1 μM)” and the Emax was < 350%.

Consider `Cc1cc(C)nc(NC(=O)c2cnc3ccc(-c4ccccc4OC(F)(F)F)nn23)n1` [Compound 399], for which, where the note is “TAMRA peptide substrate”, the “TAMRA EC1.5” value was “B (EC1.5 1-25 μM)” and the Emax is ≥ 350%.

On to `CC1(COc2cccc(NC(=O)c3cnc4ccc(-c5ccccc5OC(F)(F)F)nn34)n2)COC1` [Compound 400], for which, for the setting “TAMRA peptide substrate”, the “TAMRA EC1.5” value was “A (EC1.5<1 μM)” and the Emax is ≥ 350%.

Regarding `Cc1c(-c2ccccc2Cl)nn2c(NC(=O)c3cccc(OCC(O)CO)n3)cnc2c1C` (stereo not drawn) [Compound 402], where the note is “TAMRA peptide substrate”, the “TAMRA EC1.5” value is reported as “A (EC1.5<1 μM)” and the Emax is ≥ 350%.

For `Cc1scnc1C(=O)Nc1cnc2c(C)c(C)c(-c3ccccc3C(F)(F)F)nn12` [Compound 403], under “TAMRA peptide substrate”, the “TAMRA EC1.5” value is “A (EC1.5<1 μM)” and the Emax is ≥ 350%.

Take `Cc1nc2ccc(-c3ccccc3C(F)(F)F)nn2c1NC(=O)c1cscn1` [Compound 404]: under “TAMRA peptide substrate”, the “TAMRA EC1.5” value is given as “B (EC1.5 1-25 μM)” and the Emax is < 350%.

As to `Cc1nc(C(=O)Nc2c(C)nc3ccc(-c4ccccc4C(F)(F)F)nn23)cs1` [Compound 405], where the note is “TAMRA peptide substrate”, the “TAMRA EC1.5” value was “B (EC1.5 1-25 μM)” and the Emax is ≥ 350%.

As to `Cc1cc(-c2ccccc2C(F)(F)F)nn2c(NC(=O)c3cnccn3)cnc12` [Compound 408], for the setting “TAMRA peptide substrate”, the “TAMRA EC1.5” value is given as “A (EC1.5<1 μM)” and the Emax is ≥ 350%.

In the case of `Cc1cc(-c2ccccc2C(F)(F)F)nn2c(NC(=O)c3ccncn3)cnc12` [Compound 409], under “TAMRA peptide substrate”, the “TAMRA EC1.5” value is “A (EC1.5<1 μM)” and the Emax was ≥ 350%.

Turning to `Cc1cc(-c2ccccc2C(F)(F)F)nn2c(NC(=O)c3ncccn3)cnc12` [Compound 410], under “TAMRA peptide substrate”, the “TAMRA EC1.5” value is on record as “A (EC1.5<1 μM)” and the Emax was ≥ 350%.

On to `Cc1cc(-c2ccccc2C(F)(F)F)nn2c(NC(=O)c3cscn3)cnc12` [Compound 411], for which, under “TAMRA peptide substrate”, the “TAMRA EC1.5” value is given as “A (EC1.5<1 μM)” and the Emax was ≥ 350%.

For `Cc1cc(-c2ccccc2C(F)(F)F)nn2c(NC(=O)c3nccs3)cnc12` [Compound 414], under “TAMRA peptide substrate”, the “TAMRA EC1.5” value is given as “A (EC1.5<1 μM)” and the Emax is ≥ 350%.

Consider `Cc1cccc(NC(=O)c2cnc3ccc(-c4cccc(OCC(O)CO)c4)nn23)n1` (stereo not drawn) [Compound 416], for which, under “TAMRA peptide substrate”, the “TAMRA EC1.5” value was “A (EC1.5<1 μM)” and the Emax was ≥ 350%.

As to `Cc1cc(C)nc(NC(=O)c2cnc3ccc(-c4cccc(OCC(O)CO)c4)nn23)c1` (stereo not drawn) [Compound 417], for the setting “TAMRA peptide substrate”, the “TAMRA EC1.5” value was “A (EC1.5<1 μM)” and the Emax was ≥ 350%.

`Cc1cc(C)nc(C(=O)Nc2cnc3c(C)c(C)c(-c4ccccc4C(F)(F)F)nn23)n1` [Compound 420]: for the setting “TAMRA peptide substrate”, the “TAMRA EC1.5” value is reported as “A (EC1.5<1 μM)” and the Emax is ≥ 350%.

`Cc1c(-c2ccccc2C(F)(F)F)nn2c(NC(=O)c3cccc(OCC(O)CO)n3)cnc2c1C` (stereo not drawn) [Compound 422, 6-(2,3-dihydroxypropoxy)-N-(7,8-dimethyl-6-(2-(trifluoromethyl)phenyl)imidazo[1,2-b]pyridazin-3-yl)picolinamide]: for the setting “TAMRA peptide substrate”, the “TAMRA EC1.5” value is reported as “A (EC1.5<1 μM)” and the Emax was ≥ 350%.

Regarding `O=C(Nc1cccc(OC(CO)CO)n1)c1cnc2ccc(-c3ccccc3C(F)(F)F)nn12` [Compound 423, N-(6-((1,3-dihydroxypropan-2-yl)oxy)pyridin-2-yl)-6-(2-(trifluoromethyl)phenyl)imidazo[1,2-b]pyridazine-3-carboxamide], for the setting “TAMRA peptide substrate”, the “TAMRA EC1.5” value was “A (EC1.5<1 μM)” and the Emax was ≥ 350%.

As for `Cc1cc(-c2ccccc2C(F)(F)F)nn2c(NC(=O)c3cccc(N4CCC4)n3)cnc12` [Compound 426], where the note is “TAMRA peptide substrate”, the “TAMRA EC1.5” value is on record as “A (EC1.5<1 μM)” and the Emax is ≥ 350%.

Consider `Cc1cc(C)nc(NC(=O)c2c(C)nc3c(C)cc(-c4ccccc4C(F)(F)F)nn23)c1` [Compound 429], for which, where the note is “TAMRA peptide substrate”, the “TAMRA EC1.5” value is on record as “A (EC1.5<1 μM)” and the Emax was ≥ 350%.

Regarding `Cc1cc(NC(=O)c2c(C)nc3c(C)cc(-c4ccccc4C(F)(F)F)nn23)cc(C)n1` [Compound 432], where the note is “TAMRA peptide substrate”, the “TAMRA EC1.5” value is “A (EC1.5<1 μM)” and the Emax was ≥ 350%.

Take `Cc1cc2ncc(NC(=O)c3cscn3)n2nc1-c1ccccc1C(F)(F)F` [Compound 434]: under “TAMRA peptide substrate”, the “TAMRA EC1.5” value is “A (EC1.5<1 μM)” and the Emax is ≥ 350%.

Regarding `Cc1cc2ncc(NC(=O)c3cccc(N4CCOCC4)n3)n2nc1-c1ccccc1C(F)(F)F` [Compound 435], for the setting “TAMRA peptide substrate”, the “TAMRA EC1.5” value is reported as “A (EC1.5<1 μM)” and the Emax was ≥ 350%.

Regarding `O=C(Nc1cnc2ccc(-c3ccccc3C(F)(F)F)nn12)c1cccc(-n2cnnc2)n1` [Compound 438], under “TAMRA peptide substrate”, the “TAMRA EC1.5” value is recorded as “A (EC1.5<1 μM)” and the Emax was ≥ 350%.

`O=C(Nc1cnc2ccc(-c3ccccc3C(F)(F)F)nn12)c1ncc(F)cc1F` [Compound 440]: where the note is “TAMRA peptide substrate”, the “TAMRA EC1.5” value is given as “A (EC1.5<1 μM)” and the Emax is ≥ 350%.

Regarding `Cc1cc2ncc(NC(=O)c3ccccn3)n2nc1-c1ccccc1C(F)(F)F` [Compound 441, N-(7-methyl-6-(2-(trifluoromethyl)phenyl)imidazo[1,2-b]pyridazin-3-yl)picolinamide], under “TAMRA peptide substrate”, the “TAMRA EC1.5” value is listed as “A (EC1.5<1 μM)” and the Emax was ≥ 350%.

For the compound `Cc1cc2ncc(NC(=O)c3ncccn3)n2nc1-c1ccccc1C(F)(F)F` [Compound 444], under “TAMRA peptide substrate”, the “TAMRA EC1.5” value is on record as “A (EC1.5<1 μM)” and the Emax is ≥ 350%.

On to `Cc1cc2ncc(NC(=O)c3nccs3)n2nc1-c1ccccc1C(F)(F)F` [Compound 446], for which, where the note is “TAMRA peptide substrate”, the “TAMRA EC1.5” value is reported as “A (EC1.5<1 μM)” and the Emax was ≥ 350%.

For the compound `Cc1cnc(C(=O)Nc2cnc3cc(C)c(-c4ccccc4C(F)(F)F)nn23)s1` [Compound 447], for the setting “TAMRA peptide substrate”, the “TAMRA EC1.5” value was “A (EC1.5<1 μM)” and the Emax was ≥ 350%.

`O=C(Nc1ccccn1)c1ncn2ccc(-c3ccccc3C(F)(F)F)nc12` [Compound 450]: for the setting “TAMRA peptide substrate”, the “TAMRA EC1.5” value is “B (EC1.5 1-25 μM)” and the Emax is ≥ 350%.

For `O=C(Nc1ccncn1)c1ncn2ccc(-c3ccccc3C(F)(F)F)nc12` [Compound 452], under “TAMRA peptide substrate”, the “TAMRA EC1.5” value is recorded as “A (EC1.5<1 μM)” and the Emax was ≥ 350%.

`O=C(Nc1ncccn1)c1ncn2ccc(-c3ccccc3C(F)(F)F)nc12` [Compound 453]: under “TAMRA peptide substrate”, the “TAMRA EC1.5” value is “B (EC1.5 1-25 μM)” and the Emax is ≥ 350%.

Regarding `O=C(Nc1ncn2ccc(-c3ccccc3C(F)(F)F)nc12)c1cccc(N2CCOCC2)n1` [Compound 456], where the note is “TAMRA peptide substrate”, the “TAMRA EC1.5” value is on record as “A (EC1.5<1 μM)” and the Emax is ≥ 350%.

As for `Cc1cccc(NC(=O)c2c(C)nc3c(C)cc(-c4ccccc4C(F)(F)F)nn23)n1` [Compound 458], under “TAMRA peptide substrate”, the “TAMRA EC1.5” value was “A (EC1.5<1 μM)” and the Emax was ≥ 350%.

Consider `Cc1cc(NC(=O)c2c(C)nc3c(C)cc(-c4ccccc4C(F)(F)F)nn23)ccn1` [Compound 459], for which, under “TAMRA peptide substrate”, the “TAMRA EC1.5” value is “A (EC1.5<1 μM)” and the Emax was ≥ 350%.

In the case of `Cc1nc2ccc(-c3ccccc3C(F)(F)F)nn2c1C(=O)Nc1cccnn1` [Compound 462, 2-methyl-N-(pyridazin-3-yl)-6-(2-(trifluoromethyl)phenyl)imidazo[1,2-b]pyridazine-3-carboxamide], under “TAMRA peptide substrate”, the “TAMRA EC1.5” value is recorded as “A (EC1.5<1 μM)” and the Emax was ≥ 350%.
